Holding throughout (assay type): physicochemical
Data set [1] in a line: Thermogravimetric analysis (TGA), thermal decomposition. Particulars: for Decomposition onset: TGA, heated under nitrogen. The method, then: TGA is a method of thermal gravimetric analysis in which changes in physical and chemical properties of a material are measured as a function of increasing temperature (with constant heating rate) or as a function of time (with constant temperature and/or constant mass loss). TGA can provide information about physical phenomena, such as second-order phase transitions, or about chemical phenomena, such as desolvation and/or decomposition.
TG analyses described herein were performed using a Mettler Toledo TGA/DSC3+ analyzer. Balance check was performed using calcium oxalate, and temperature calibration was performed using indium, tin, and zinc. The sample was placed in an aluminum pan. The sample was sealed, the lid pierced, then inserted into the TG furnace. The furnace was heated under nitrogen.

Data set [2] in a line: Dynamic vapor sorption (DVS) / hygroscopicity. As to conditions: for Desorption, hysteresis and form change after moisture sorption-desorption: moisture sorption-desorption cycles, XRPD. The method, then: The crystalline forms provided can be additionally characterized by dynamic vapor sorption (DVS), wherein a sample is subjected to varying conditions of humidity and temperature, and the response of the sample is measured gravimetrically. The result of a DVS analysis particularly can be a dual curve providing sample weight percent as a function of relative humidity (RH) over time, a dual curve providing sample water content as a function of RH over time, a curve providing weight percent in relation to RH, or a curve providing water content in relation to RH. Equipment useful for measuring such data is known in the art, and any such equipment can be used to measure the compounds according to the present invention. In certain embodiments, DVS analysis can be carried out by scanning at a series of specific RH values. Thus, specific crystalline forms according to the invention may be identified and described in relation to the representative graph and/or the approximate peaks obtained in DVS analysis, particularly scanning from 0% to 95% RH with a step interval of 5% or 10% RH.
Hygroscopicities of the materials described in the present disclosure are classified according to Table 1
DVS data were collected on a VTI SGA-100 Vapor Sorption Analyzer. NaCl and PVP were used as calibration standards. Samples were not dried prior to analysis. Sorption and desorption data were collected over a range from 5% to 95% RH at 10% RH increments under a nitrogen purge. The equilibrium criterion used for analysis was less than 0.0100% weight change in 5 minutes with a maximum equilibration time of 3 hours. Data were not corrected for the initial moisture content of the samples.

Data set [3] is described as follows: Aqueous kinetic solubility by aliquot addition method. Particulars: water; for Kinetic Solubility / solubility kinetic: ambient temperature, visual dissolution. From the text:
Generated solids were typically observed by polarized light microscopy and, if crystalline (i.e. display birefringence and extinction), analyzed by XRPD. The XRPD patterns were compared to each other and to available reference patterns of salt formers. If unique by XRPD, the materials were further analyzed by ^1H NMR, TGA, DSC, and DVS. Kinetic solubilities of selected materials were estimated by aliquot addition method. Equilibrium solubilities were estimated gravimetrically using supernatants from suspensions equilibrated at ambient temperature for approximately 7-10 days.
Weighed samples of material were treated with aliquots of water at ambient temperature. Samples were typically sonicated between additions to facilitate dissolution. Complete dissolution was observed through visual inspection. Solubilities were calculated based on the total amount of solvent added to achieve complete dissolution and may be greater than the value reported due to incremental solvent addition and the inherent kinetics of dissolution. If dissolution was not observed, values are reported as “less than”. If complete dissolution was observed upon the first aliquot of solvent, values are reported as “greater than”.
Kinetic solubility was estimated by aliquot addition method, and dissolution was judged by visual observations. If dissolution was not observed, values are reported as “less than.” If complete dissolution was observed upon the first aliquot of solvent, values are reported as “greater than.” Kinetic solubility of selected salts is presented in Table 8.

The mark [4] stands for this setting: upon increase of RH / entire RH range.

Structures can show the parent of a compound that is named as a salt.

Compound `CCN(C/C=C\c1ccc(C2CCCCC2)c(Cl)c1)C1CCCCC1.O=S(=O)(O)c1ccccc1` [Besylate salt, Besylate Salt of Cis-N-cyclohexyl-N-ethyl-3-(3-chloro-4-cyclohexylphenyl)prop-2-enylamine] displayed a Decomposition onset in data set [1] of 274 °C. The DVS weight gain result in data set [2] (5-85% RH) is on record as “about 0.88%”; in data set [2] (85-95% RH) it was “about 0.85%”. Besides, the “Desorption, hysteresis and form change after moisture sorption-desorption” value (“Desorption, hysteresis and form change” below) in data set [2] was “complete desorption without form change and with almost no hysteresis”. The Hygroscopicity result in data set [2] (setting [4]) was “limited hygroscopicity”. Besides, the “Kinetic Solubility” value in data set [3] is less than 600 µg/mL; in data set [3] (listed as Besylate slat), less than 1000 µg/mL.
Consider `CCN(C/C=C\c1ccc(C2CCCCC2)c(Cl)c1)C1CCCCC1.O=C(O)c1ccc2ccccc2c1O` [Xinafoate salt, Xinafoate Salt of Cis-N-cyclohexyl-N-ethyl-3-(3-chloro-4-cyclohexylphenyl)prop-2-enylamine], for which the Decomposition onset in data set [1] is 146 °C. The DVS weight gain entry in data set [2] (5-85% RH) is “about 0.88%”; in data set [2] (85-95% RH), “about 0.85%”. In addition, the Hygroscopicity entry in data set [2] (above 65% RH) was “limited hygroscopicity”; in data set [2] (below 65% RH) it was “non-hygroscopic”. In data set [2], the “Desorption, hysteresis and form change” value is listed as “A form change is suggested”.
With `CCN(C/C=C\c1ccc(C2CCCCC2)c(Cl)c1)C1CCCCC1` [Salicylate salt, Salicylate Salt of Cis-N-cyclohexyl-N-ethyl-3-(3-chloro-4-cyclohexylphenyl)prop-2-enylamine], the Thermal stability result in data set [1] is recorded as “thermally stable”. For the same compound, the Decomposition onset in data set [1] turned out to be 212 °C. In addition, the results for the DVS weight gain entry in data set [2] (5-95% RH) and in data set [2] (5 to 95% RH) were “about 0.04%” and “about 0.04 wt %”, respectively. The Hygroscopicity result is reported as “non-hygroscopic” in data set [2] (setting [4]) and “lack of hygroscopicity” in data set [2] (upon increase of RH / entire RH range, listed as salicylate). The compound also returned a solubility (kinetic) in data set [3] of less than 1000 µg/mL.
As for `CCN(C/C=C\c1ccc(C2CCCCC2)c(Cl)c1)C1CCCCC1.O=S(=O)(O)CCS(=O)(=O)O` [Edisylate salt, Edisylate Salt of Cis-N-cyclohexyl-N-ethyl-3-(3-chloro-4-cyclohexylphenyl)prop-2-enylamine], the Decomposition onset in data set [1] was 260 °C. In addition, the DVS weight gain entry is “about 0.35%” in data set [2] (5-75% RH) and “about 18.55%” in data set [2] (75-95% RH). The Hygroscopicity entry is “significant hygroscopicity and deliquesces” in data set [2] (above 75% RH); “non-hygroscopic” in data set [2] (below 75% RH). The “Desorption, hysteresis and form change” value in data set [2] is “form change to a highly disordered material”.
As for `CCN(C/C=C\c1ccc(C2CCCCC2)c(Cl)c1)C1CCCCC1.CCS(=O)(=O)O` [Esylate salt, Esylate Salt of Cis-N-cyclohexyl-N-ethyl-3-(3-chloro-4-cyclohexylphenyl)prop-2-enylamine], in data set [1], the Decomposition onset stood at 268 °C. For the same compound, the results for the DVS weight gain entry in data set [2] (5-85% RH), in data set [2] (5 to 95% RH) and in data set [2] (85-95% RH) were “about 0.35%”, “about 0.9 wt %” and 0.51%, respectively. In addition, the “Desorption, hysteresis and form change” value in data set [2] was “complete desorption without hysteresis or form change”. Besides, the Hygroscopicity result in data set [2] (setting [4]) is listed as “limited hygroscopicity”. In data set [3], this compound showed a kinetic solubility of 30000 µg/mL. Also, the “fold more soluble than all other crystalline salts isolated (kinetic solubility)” value in data set [3] (vs other crystalline salts) was “more than 30 fold”.

These data come from US20220024851A1, “CRYSTALLINE FORMS OF MULTICYCLIC COMPOUNDS AND USES THEREOF” (Convelo Therapeutics, Inc., priority 2018, published 2022).
